Source: the NIST ThermoML archive (doi:10.1016/j.tca.2013.08.031)
Values joined by “and” are separate entries in the source; they are usually repeats but may differ in a detail not shown here. Equal entries are not always repeated. Numbers after ± are expanded uncertainties.

Assay: molar heat capacity at constant volume
Conditions: Fluid (supercritical or subcritical phases), Vacuum adiabatic calorimetry

CCC(C)O (stereo unspecified) [butan-2-ol]
molar heat capacity at constant volume (375.31 K, Mass density=735.98 kg/m3): 219.47 ± 2.2 J/K/mol | molar heat capacity at constant volume (375.53 K, Mass density=735.98 kg/m3): 217.99 ± 2.2 J/K/mol | molar heat capacity at constant volume (375.75 K, Mass density=735.98 kg/m3): 218.29 ± 2.2 J/K/mol | molar heat capacity at constant volume (375.97 K, Mass density=735.98 kg/m3): 219.25 ± 2.2 J/K/mol | molar heat capacity at constant volume (376.19 K, Mass density=735.98 kg/m3): 217.99 ± 2.2 J/K/mol | molar heat capacity at constant volume (376.42 K, Mass density=735.98 kg/m3): 219.47 ± 2.2 J/K/mol | molar heat capacity at constant volume (376.64 K, Mass density=735.98 kg/m3): 218.29 ± 2.2 J/K/mol | molar heat capacity at constant volume (376.86 K, Mass density=735.98 kg/m3): 219.47 ± 2.2 J/K/mol | molar heat capacity at constant volume (377.08 K, Mass density=735.98 kg/m3): 217.77 ± 2.2 J/K/mol | molar heat capacity at constant volume (377.3 K, Mass density=735.98 kg/m3): 219.55 ± 2.2 J/K/mol | molar heat capacity at constant volume (377.52 K, Mass density=735.98 kg/m3): 219.33 ± 2.2 J/K/mol | molar heat capacity at constant volume (407.02 K, Mass density=683.53 kg/m3): 273.88 ± 2.7 J/K/mol | molar heat capacity at constant volume (407.23 K, Mass density=683.53 kg/m3): 278.47 ± 2.8 J/K/mol | molar heat capacity at constant volume (407.44 K, Mass density=683.53 kg/m3): 275.51 ± 2.7 J/K/mol | molar heat capacity at constant volume (407.65 K, Mass density=683.53 kg/m3): 274.18 ± 2.7 J/K/mol | molar heat capacity at constant volume (407.86 K, Mass density=683.53 kg/m3): 273.95 ± 2.8 J/K/mol | molar heat capacity at constant volume (408.07 K, Mass density=683.53 kg/m3): 279.22 ± 2.8 J/K/mol | molar heat capacity at constant volume (408.28 K, Mass density=683.53 kg/m3): 277.29 ± 2.8 J/K/mol | molar heat capacity at constant volume (408.49 K, Mass density=683.53 kg/m3): 260.39 ± 2.7 J/K/mol | molar heat capacity at constant volume (408.7 K, Mass density=683.53 kg/m3): 246.01 ± 2.5 J/K/mol | molar heat capacity at constant volume (408.91 K, Mass density=683.53 kg/m3): 240.23 ± 2.5 J/K/mol | molar heat capacity at constant volume (409.12 K, Mass density=683.53 kg/m3): 236.6 ± 2.4 J/K/mol | molar heat capacity at constant volume (409.33 K, Mass density=683.53 kg/m3): 234.08 ± 2.4 J/K/mol | molar heat capacity at constant volume (409.54 K, Mass density=683.53 kg/m3): 232.22 ± 2.4 J/K/mol | molar heat capacity at constant volume (409.75 K, Mass density=683.53 kg/m3): 224.59 ± 2.3 J/K/mol | molar heat capacity at constant volume (409.96 K, Mass density=683.53 kg/m3): 223.4 ± 2.3 J/K/mol | molar heat capacity at constant volume (410.17 K, Mass density=683.53 kg/m3): 224.22 ± 2.3 J/K/mol | molar heat capacity at constant volume (410.38 K, Mass density=683.53 kg/m3): 222.66 ± 2.2 J/K/mol | molar heat capacity at constant volume (413.11 K, Mass density=648.53 kg/m3): 272.62 ± 2.7 J/K/mol | molar heat capacity at constant volume (413.31 K, Mass density=648.53 kg/m3): 273.21 ± 2.7 J/K/mol | molar heat capacity at constant volume (413.52 K, Mass density=648.53 kg/m3): 273.66 ± 2.7 J/K/mol | molar heat capacity at constant volume (413.73 K, Mass density=648.53 kg/m3): 273.51 ± 2.7 J/K/mol | molar heat capacity at constant volume (413.94 K, Mass density=648.53 kg/m3): 272.62 ± 2.7 J/K/mol | molar heat capacity at constant volume (414.15 K, Mass density=648.53 kg/m3): 272.84 ± 2.7 J/K/mol | molar heat capacity at constant volume (414.78 K, Mass density=683.53 kg/m3): 226.66 ± 2.3 J/K/mol | molar heat capacity at constant volume (414.99 K, Mass density=683.53 kg/m3): 226.89 ± 2.3 J/K/mol | molar heat capacity at constant volume (415.19 K, Mass density=683.53 kg/m3): 227.55 ± 2.3 J/K/mol and 227.85 ± 2.3 J/K/mol | molar heat capacity at constant volume (419.77 K, Mass density=683.53 kg/m3): 228.67 ± 2.3 J/K/mol | molar heat capacity at constant volume (419.97 K, Mass density=683.53 kg/m3): 227.55 ± 2.3 J/K/mol | molar heat capacity at constant volume (420.6 K, Mass density=683.53 kg/m3): 230.59 ± 2.3 J/K/mol | molar heat capacity at constant volume (421.42 K, Mass density=683.53 kg/m3): 231.85 ± 2.4 J/K/mol | molar heat capacity at constant volume (421.63 K, Mass density=683.53 kg/m3): 230 ± 2.3 J/K/mol | molar heat capacity at constant volume (422.25 K, Mass density=683.53 kg/m3): 230.81 ± 2.3 J/K/mol | molar heat capacity at constant volume (422.46 K, Mass density=683.53 kg/m3): 231.11 ± 2.3 J/K/mol | molar heat capacity at constant volume (422.66 K, Mass density=683.53 kg/m3): 231.85 ± 2.4 J/K/mol | molar heat capacity at constant volume (422.87 K, Mass density=683.53 kg/m3): 231.33 ± 2.3 J/K/mol | molar heat capacity at constant volume (423.08 K, Mass density=683.53 kg/m3): 231.41 ± 2.3 J/K/mol | molar heat capacity at constant volume (423.28 K, Mass density=683.53 kg/m3): 230.81 ± 2.3 J/K/mol | molar heat capacity at constant volume (423.49 K, Mass density=683.53 kg/m3): 231.48 ± 2.4 J/K/mol | molar heat capacity at constant volume (423.69 K, Mass density=683.53 kg/m3): 231.93 ± 2.4 J/K/mol | molar heat capacity at constant volume (424.31 K, Mass density=683.53 kg/m3): 231.11 ± 2.3 J/K/mol | molar heat capacity at constant volume (424.52 K, Mass density=683.53 kg/m3): 230.52 ± 2.3 J/K/mol | molar heat capacity at constant volume (424.72 K, Mass density=683.53 kg/m3): 230.81 ± 2.3 J/K/mol | molar heat capacity at constant volume (424.93 K, Mass density=683.53 kg/m3): 230.44 ± 2.3 J/K/mol | molar heat capacity at constant volume (425.14 K, Mass density=683.53 kg/m3): 231.33 ± 2.3 J/K/mol | molar heat capacity at constant volume (425.75 K, Mass density=683.53 kg/m3): 231.19 ± 2.3 J/K/mol | molar heat capacity at constant volume (425.96 K, Mass density=683.53 kg/m3): 230.89 ± 2.3 J/K/mol and 228.44 ± 2.3 J/K/mol | molar heat capacity at constant volume (426.16 K, Mass density=683.53 kg/m3): 227.48 ± 2.3 J/K/mol | molar heat capacity at constant volume (426.37 K, Mass density=683.53 kg/m3): 226.74 ± 2.3 J/K/mol | molar heat capacity at constant volume (426.58 K, Mass density=683.53 kg/m3): 227.41 ± 2.3 J/K/mol | molar heat capacity at constant volume (426.78 K, Mass density=683.53 kg/m3): 227.03 ± 2.3 J/K/mol | molar heat capacity at constant volume (426.99 K, Mass density=683.53 kg/m3): 227.48 ± 2.3 J/K/mol | molar heat capacity at constant volume (431.29 K, Mass density=648.53 kg/m3): 278.03 ± 2.8 J/K/mol | molar heat capacity at constant volume (431.49 K, Mass density=648.53 kg/m3): 279.14 ± 2.8 J/K/mol | molar heat capacity at constant volume (431.7 K, Mass density=648.53 kg/m3): 277.66 ± 2.8 J/K/mol | molar heat capacity at constant volume (431.9 K, Mass density=648.53 kg/m3): 277.88 ± 2.8 J/K/mol | molar heat capacity at constant volume (432.31 K, Mass density=648.53 kg/m3): 278.77 ± 2.8 J/K/mol | molar heat capacity at constant volume (432.51 K, Mass density=648.53 kg/m3): 277.14 ± 2.8 J/K/mol | molar heat capacity at constant volume (432.72 K, Mass density=648.53 kg/m3): 277.44 ± 2.9 J/K/mol | molar heat capacity at constant volume (432.92 K, Mass density=648.53 kg/m3): 279.22 ± 2.9 J/K/mol | molar heat capacity at constant volume (432.92 K, Mass density=683.53 kg/m3): 227.18 ± 2.3 J/K/mol | molar heat capacity at constant volume (433.12 K, Mass density=648.53 kg/m3): 278.55 ± 2.9 J/K/mol | molar heat capacity at constant volume (433.12 K, Mass density=683.53 kg/m3): 228 ± 2.3 J/K/mol | molar heat capacity at constant volume (433.33 K, Mass density=648.53 kg/m3): 272.99 ± 2.8 J/K/mol | molar heat capacity at constant volume (433.33 K, Mass density=683.53 kg/m3): 227.63 ± 2.3 J/K/mol | molar heat capacity at constant volume (433.53 K, Mass density=648.53 kg/m3): 225.03 ± 2.4 J/K/mol | molar heat capacity at constant volume (433.53 K, Mass density=683.53 kg/m3): 227.78 ± 2.3 J/K/mol | molar heat capacity at constant volume (433.73 K, Mass density=648.53 kg/m3): 224.81 ± 2.4 J/K/mol | molar heat capacity at constant volume (433.73 K, Mass density=683.53 kg/m3): 228.29 ± 2.3 J/K/mol | molar heat capacity at constant volume (433.94 K, Mass density=648.53 kg/m3): 222.29 ± 2.4 J/K/mol | molar heat capacity at constant volume (434.14 K, Mass density=648.53 kg/m3): 223.48 ± 2.4 J/K/mol | molar heat capacity at constant volume (434.55 K, Mass density=648.53 kg/m3): 221.92 ± 2.2 J/K/mol | molar heat capacity at constant volume (434.75 K, Mass density=648.53 kg/m3): 221.25 ± 2.2 J/K/mol | molar heat capacity at constant volume (434.96 K, Mass density=648.53 kg/m3): 222.96 ± 2.2 J/K/mol | molar heat capacity at constant volume (435.16 K, Mass density=648.53 kg/m3): 222.74 ± 2.2 J/K/mol | molar heat capacity at constant volume (435.36 K, Mass density=648.53 kg/m3): 222.88 ± 2.2 J/K/mol | molar heat capacity at constant volume (449.87 K, Mass density=598.18 kg/m3): 278.18 ± 2.8 J/K/mol | molar heat capacity at constant volume (450.07 K, Mass density=598.18 kg/m3): 277.14 ± 2.8 J/K/mol | molar heat capacity at constant volume (450.27 K, Mass density=598.18 kg/m3): 279.22 ± 2.8 J/K/mol | molar heat capacity at constant volume (450.47 K, Mass density=598.18 kg/m3): 276.18 ± 2.8 J/K/mol | molar heat capacity at constant volume (450.66 K, Mass density=598.18 kg/m3): 277.36 ± 2.8 J/K/mol | molar heat capacity at constant volume (457.62 K, Mass density=648.53 kg/m3): 222.14 ± 2.2 J/K/mol | molar heat capacity at constant volume (457.82 K, Mass density=598.18 kg/m3): 274.62 ± 2.7 J/K/mol | molar heat capacity at constant volume (457.82 K, Mass density=648.53 kg/m3): 221.85 ± 2.2 J/K/mol | molar heat capacity at constant volume (458.02 K, Mass density=598.18 kg/m3): 274.4 ± 2.7 J/K/mol | molar heat capacity at constant volume (458.02 K, Mass density=648.53 kg/m3): 222.88 ± 2.2 J/K/mol | molar heat capacity at constant volume (458.22 K, Mass density=598.18 kg/m3): 277.66 ± 2.8 J/K/mol | molar heat capacity at constant volume (458.22 K, Mass density=648.53 kg/m3): 224.51 ± 2.3 J/K/mol | molar heat capacity at constant volume (458.41 K, Mass density=598.18 kg/m3): 277.29 ± 2.8 J/K/mol | molar heat capacity at constant volume (458.41 K, Mass density=648.53 kg/m3): 223.62 ± 2.2 J/K/mol | molar heat capacity at constant volume (458.61 K, Mass density=598.18 kg/m3): 278.85 ± 2.8 J/K/mol | molar heat capacity at constant volume (458.81 K, Mass density=598.18 kg/m3): 277.59 ± 2.8 J/K/mol | molar heat capacity at constant volume (459.01 K, Mass density=598.18 kg/m3): 279.44 ± 2.8 J/K/mol | molar heat capacity at constant volume (462.16 K, Mass density=598.18 kg/m3): 275.88 ± 2.8 J/K/mol | molar heat capacity at constant volume (462.36 K, Mass density=598.18 kg/m3): 274.69 ± 2.7 J/K/mol | molar heat capacity at constant volume (462.56 K, Mass density=598.18 kg/m3): 273.58 ± 2.7 J/K/mol
